Assay results as given in ChEMBL document CHEMBL5113472, “Structure-activity relationship studies of [1,2,5]oxadiazolo[3,4-b]pyrazine-containing polymyxin-selective resistance-modifying agents” (Bioorg Med Chem Lett, 2022).
In brackets after ≈: the same amount, converted by molar mass.

How the values were obtained:
Escherichia coli [1] = assay: Antibacterial activity against Escherichia coli AR0493 harboring mcr-1 plasmid assessed as inhibition of bacterial growth; type: functional
[2] = Cytotoxicity against human HeLa cells assessed as inhibition of cell growth by cell viability assay; type: toxicity, cell-based
[3] = Selectivity index, ratio of GI50 for cytotoxicity against human HeLa cells to MRC for Potentiation of colistin-induced antibacterial activity against Escherichia coli AR0493 harboring mcr-1 plasmid; type: toxicity, cell-based; conditions: read-out: Selectivity Index
Escherichia coli [4] = assay: Potentiation of colistin-induced antibacterial activity against Escherichia coli AR0493 harboring mcr-1 plasmid assessed as minimum resensitizing concentration; type: functional
Escherichia coli [5] = assay: Potentiation of colistin-induced antibacterial activity against Escherichia coli AR0493 harboring mcr-1 plasmid assessed as colistin MIC at 1 ug/ml; type: functional; conditions: dose 1 µg/ml
Acinetobacter baumannii [6] = assay: Potentiation of colistin-induced antibacterial activity against Acinetobacter baumannii AR0310 assessed as colistin MIC at 1 ug/ml; type: functional; conditions: dose 1 µg/ml
Escherichia coli [7] = assay: Potentiation of colistin-induced antibacterial activity against Escherichia coli AR0538 harboring mcr-2 plasmid assessed as colistin MIC at 1 ug/ml; type: functional; conditions: dose 1 µg/ml
Pseudomonas aeruginosa [8] = assay: Potentiation of colistin-induced antibacterial activity against Pseudomonas aeruginosa AR0239 assessed as colistin MIC at 1 ug/ml; type: functional; conditions: dose 1 µg/ml
Pseudomonas aeruginosa [9] = assay: Potentiation of colistin-induced antibacterial activity against Pseudomonas aeruginosa AR0257 assessed as colistin MIC at 1 ug/ml; type: functional; conditions: dose 1 µg/ml
Salmonella typhimurium [10] = assay: Potentiation of colistin-induced antibacterial activity against Salmonella Typhimurium AR0539 harboring mcr-3 plasmid assessed as colistin MIC at 1 ug/ml; type: functional, Salmonella enterica subsp. enterica serovar Typhimurium; conditions: Salmonella enterica, dose 1 µg/ml
Salmonella typhimurium [11] = assay: Potentiation of colistin-induced antibacterial activity against Salmonella Typhimurium AR0635 harboring mcr-4 plasmid assessed as colistin MIC at 1 ug/ml; type: functional, Salmonella enterica subsp. enterica serovar Typhimurium; conditions: Salmonella enterica, dose 1 µg/ml
Klebsiella pneumoniae [12] = assay: Potentiation of colistin-induced antibacterial activity against Klebsiella pneumoniae AR0497 harboring mcr-1 plasmid assessed as colistin MIC at 1 ug/ml; type: functional; conditions: dose 1 µg/ml
Escherichia coli [13] = assay: Antibacterial activity against Escherichia coli AR0538 harboring mcr-2 plasmid assessed as inhibition of bacterial growth; type: functional, organism-based
Salmonella typhimurium [14] = assay: Antibacterial activity against Salmonella Typhimurium AR0539 harboring mcr-3 plasmid assessed as inhibition of bacterial growth; type: functional, organism-based; conditions: Salmonella enterica subsp. enterica serovar Typhimurium
Klebsiella pneumoniae [15] = assay: Antibacterial activity against Klebsiella pneumoniae AR0497 harboring mcr-1 plasmid assessed as inhibition of bacterial growth; type: functional, organism-based
Pseudomonas aeruginosa [16] = assay: Antibacterial activity against Pseudomonas aeruginosa AR0239 assessed as inhibition of bacterial growth; type: functional, organism-based
Pseudomonas aeruginosa [17] = assay: Antibacterial activity against Pseudomonas aeruginosa AR0257 assessed as inhibition of bacterial growth; type: functional, organism-based
Salmonella typhimurium [18] = assay: Antibacterial activity against Salmonella Typhimurium AR0635 harboring mcr-4 plasmid assessed as inhibition of bacterial growth; type: functional, organism-based; conditions: Salmonella enterica subsp. enterica serovar Typhimurium
Acinetobacter baumannii [19] = assay: Antibacterial activity against Acinetobacter baumannii AR0310 assessed as inhibition of bacterial growth; type: functional, organism-based

| Compound | MIC (Escherichia coli [1]) [µg/mL] | GI50 [2] [µg/mL] | selectivity ratio [3] | MRC (Escherichia coli [4]) [µg/mL] | further results |
| --- | --- | --- | --- | --- | --- |
| FC(F)(F)Oc1cccc(Nc2nc3nonc3nc2Nc2cccc(OC(F)(F)F)c2)c1 | > 64 | 4.3 (≈ 9.1 µM) | 17 | 0.25 | – |
| COc1ccc(Nc2nc3nonc3nc2O)cc1 | – | – | – | >64 | – |
| Cc1cccc(Nc2nc3nonc3nc2Nc2cccc(C)c2)c1 | > 64 | 15 (≈ 45.1 µM) | 30 | 0.5 | – |
| Cc1ccccc1Nc1nc2nonc2nc1O | – | – | – | 64 | – |
| Oc1nc2nonc2nc1Nc1cccc(OC(F)(F)F)c1 | > 64 | 24 (≈ 76.6 µM) | 6 | 4 | – |
| Clc1cccc(Nc2nc3nonc3nc2Nc2cccc(Cl)c2)c1 | > 64 | 11 (≈ 29.5 µM) | 44 | – | MIC (Escherichia coli [5]): 1 µg/mL; MIC (Acinetobacter baumannii [6]): 0.25 µg/mL; MIC (Escherichia coli [7]): 1 µg/mL; MIC (Pseudomonas aeruginosa [8]): 1 µg/mL; MIC (Pseudomonas aeruginosa [9]): 2 µg/mL; MIC (Salmonella typhimurium [10]): 1 µg/mL; MIC (Salmonella typhimurium [11]): 1 µg/mL; MIC (Klebsiella pneumoniae [12]): 1 µg/mL |
| Fc1cccc(Nc2nc3nonc3nc2Nc2cccc(F)c2)c1 | > 64 | 20 (≈ 58.8 µM) | 40 | 0.5 | – |
| Oc1nc2nonc2nc1Nc1ccccc1 | – | – | – | >64 | – |
| Cc1ccccc1Nc1nc2nonc2nc1Nc1ccccc1C | – | – | – | 8 | – |
| Oc1nc2nonc2nc1Nc1ccccc1F | – | – | – | 64 | – |
| FC(F)(F)Oc1ccccc1Nc1nc2nonc2nc1Nc1ccccc1OC(F)(F)F | – | – | – | >64 | – |
| COc1cccc(Nc2nc3nonc3nc2Nc2cccc(OC)c2)c1 | – | – | – | 2 | – |
| Fc1ccc(Nc2nc3nonc3nc2Nc2ccc(F)cc2)cc1 | > 64 | 9.4 (≈ 27.6 µM) | 19 | 0.5 | – |
| Oc1nc2nonc2nc1Nc1ccc(F)cc1 | – | – | – | 32 | – |
| c1ccc(Nc2nc3nonc3nc2Nc2ccccc2)cc1 | > 64 | 4.4 (≈ 14.5 µM) | 8.8 | 0.5 | – |
| Oc1nc2nonc2nc1Nc1ccc(Cl)cc1 | – | – | – | 32 | – |
| FC(F)(F)Oc1cccc(Nc2nc3nonc3nc2Nc2ccccc2)c1 | – | – | – | 1 | – |
| Oc1nc2nonc2nc1Nc1ccc(OC(F)(F)F)cc1 | – | – | – | 16 | – |

| Compound | MIC (Escherichia coli [1]) [µg/mL] | GI50 [2] [µg/mL] | selectivity ratio [3] | MRC (Escherichia coli [4]) [µg/mL] | further results |
| --- | --- | --- | --- | --- | --- |
| Cc1cccc(Nc2nc3nonc3nc2O)c1 | – | – | – | 8 | – |
| Oc1nc2nonc2nc1Nc1cccc(F)c1 | – | – | – | 64 | – |
| Cc1ccc(Nc2nc3nonc3nc2Nc2ccc(C)cc2)cc1 | > 64 | 11 (≈ 33.1 µM) | 22 | 0.5 | – |
| COc1cccc(Nc2nc3nonc3nc2O)c1 | – | – | – | 16 | – |
| COc1ccc(Nc2nc3nonc3nc2Nc2ccc(OC)cc2)cc1 | – | – | – | >64 | – |
| COLISTIN | 8 | – | – | – | MIC (Escherichia coli [13]): 8 µg/mL; MIC (Salmonella typhimurium [14]): 8 µg/mL; MIC (Klebsiella pneumoniae [15]): 8 µg/mL; MIC (Pseudomonas aeruginosa [16]): 4 µg/mL; MIC (Pseudomonas aeruginosa [17]): 8 µg/mL; MIC (Salmonella typhimurium [18]): 32 µg/mL; MIC (Acinetobacter baumannii [19]): 32 µg/mL |
| O=c1[nH]c2nonc2nc1Nc1cccc(Cl)c1 | – | – | – | 16 | – |
| Cc1ccc(Nc2nc3nonc3nc2O)cc1 | – | – | – | 64 | – |
| Oc1nc2nonc2nc1Nc1ccccc1OC(F)(F)F | – | – | – | >64 | – |
| COc1ccccc1Nc1nc2nonc2nc1O | > 64 | > 100 | > 25 | 4 | – |
| COc1ccccc1Nc1nc2nonc2nc1Nc1ccccc1OC | – | – | – | >64 | – |
| Oc1nc2nonc2nc1Nc1ccccc1Cl | – | – | – | 16 | – |
| Clc1ccccc1Nc1nc2nonc2nc1Nc1ccccc1Cl | – | – | – | 8 | – |
| Cc1cccc(Nc2nc3nonc3nc2Nc2cccc(OC(F)(F)F)c2)c1 | > 64 | 12 (≈ 29.8 µM) | 24 | 0.5 | – |
| COc1ccccc1Nc1nc2nonc2nc1Nc1cccc(OC(F)(F)F)c1 | – | – | – | >64 | – |
| FC(F)(F)Oc1ccc(Nc2nc3nonc3nc2Nc2ccc(OC(F)(F)F)cc2)cc1 | > 64 | 5.7 (≈ 12.1 µM) | 23 | 0.25 | – |
| Clc1ccc(Nc2nc3nonc3nc2Nc2ccc(Cl)cc2)cc1 | > 64 | 28 (≈ 75 µM) | 56 | 0.5 | MIC (Escherichia coli [5]): 1 µg/mL; MIC (Acinetobacter baumannii [6]): 0.25 µg/mL; MIC (Escherichia coli [7]): 2 µg/mL; MIC (Pseudomonas aeruginosa [8]): 1 µg/mL; MIC (Pseudomonas aeruginosa [9]): 2 µg/mL; MIC (Salmonella typhimurium [10]): 2 µg/mL; MIC (Salmonella typhimurium [11]): 1 µg/mL; MIC (Klebsiella pneumoniae [12]): 1 µg/mL |
